Data reported in US8309546B2, “Morpholinopurine derivatives” (Daiichi Sankyo Company, Limited, priority 2008, dated 2012).

Columns and labels:
[1] = tested on: Akt (threonine 308) phosphorylation in AN3CA tumor; experiment: Akt phosphorylation inhibition assay in xenograft; type: in vivo, female nude mouse; conditions: Mus musculus, AN3-CA, oral, 6 hr after dosing
Protocol: (§1) A tumor section was prepared from a human endometrial cancer cell strain AN3CA tumor mass formed in a female nude mouse as subcutaneously transplanted tumor and a xenograft model was prepared by subcutaneously transplanting the tumor to a female nude mouse. The test compound at a predetermined concentration was orally administered. After a predetermined time, the anesthetized mouse was exsanguinated to death, and a tumor mass was isolated. The tumor mass was crushed using a lysis buffer containing inhibitors of proteases and dephosphorylating enzymes (Cell Signaling Technology, Inc.) and the supernatant was separated by centrifugation to obtain a tumor extract. The protein content of the tumor extract was measured using DC Protein Assay Kit (Bio-Rad Laboratories, Inc.) and phosphorylation conditions of Akt (threonine 308) and S6 (serine 235 and 236) were analyzed by a usual technique of western blotting using tumor extracts containing the same amount of protein. The primary antibody and the secondary antibody used for detecting each molecule were rabbit anti-phospho-Akt(T308) antibody and HRP-labeled goat anti-rabbit IgG antibody or mouse anti-phospho-S6(S235/236) antibody and HRP-labeled sheep anti-mouse IgG antibody.
(§2) The signal intensity detected using an image analyzer Typhoon 9400 (GE Healthcare) was quantified, and the phosphorylation inhibition rate (%) was calculated by the following formula. Phosphorylation inhibitory activity (%) of Akt and S6 after treatment with test compound=100−100×(B/A) A: Signal intensity derived from phosphorylated protein in tumor mass isolated from mouse untreated with test compound B: Signal intensity derived from phosphorylated protein in tumor mass isolated from mouse treated with test compound

PI3Kα = PI3Kα (Homo sapiens, UniProt P42336); experiment: PI3K kinase activity inhibition assay; type: biochemical; conditions: Kinase-Glo Plus ATP detection, read-out: IC50 against PI3K
Chain of PI3Kα (P42336 whole entry, species assumed): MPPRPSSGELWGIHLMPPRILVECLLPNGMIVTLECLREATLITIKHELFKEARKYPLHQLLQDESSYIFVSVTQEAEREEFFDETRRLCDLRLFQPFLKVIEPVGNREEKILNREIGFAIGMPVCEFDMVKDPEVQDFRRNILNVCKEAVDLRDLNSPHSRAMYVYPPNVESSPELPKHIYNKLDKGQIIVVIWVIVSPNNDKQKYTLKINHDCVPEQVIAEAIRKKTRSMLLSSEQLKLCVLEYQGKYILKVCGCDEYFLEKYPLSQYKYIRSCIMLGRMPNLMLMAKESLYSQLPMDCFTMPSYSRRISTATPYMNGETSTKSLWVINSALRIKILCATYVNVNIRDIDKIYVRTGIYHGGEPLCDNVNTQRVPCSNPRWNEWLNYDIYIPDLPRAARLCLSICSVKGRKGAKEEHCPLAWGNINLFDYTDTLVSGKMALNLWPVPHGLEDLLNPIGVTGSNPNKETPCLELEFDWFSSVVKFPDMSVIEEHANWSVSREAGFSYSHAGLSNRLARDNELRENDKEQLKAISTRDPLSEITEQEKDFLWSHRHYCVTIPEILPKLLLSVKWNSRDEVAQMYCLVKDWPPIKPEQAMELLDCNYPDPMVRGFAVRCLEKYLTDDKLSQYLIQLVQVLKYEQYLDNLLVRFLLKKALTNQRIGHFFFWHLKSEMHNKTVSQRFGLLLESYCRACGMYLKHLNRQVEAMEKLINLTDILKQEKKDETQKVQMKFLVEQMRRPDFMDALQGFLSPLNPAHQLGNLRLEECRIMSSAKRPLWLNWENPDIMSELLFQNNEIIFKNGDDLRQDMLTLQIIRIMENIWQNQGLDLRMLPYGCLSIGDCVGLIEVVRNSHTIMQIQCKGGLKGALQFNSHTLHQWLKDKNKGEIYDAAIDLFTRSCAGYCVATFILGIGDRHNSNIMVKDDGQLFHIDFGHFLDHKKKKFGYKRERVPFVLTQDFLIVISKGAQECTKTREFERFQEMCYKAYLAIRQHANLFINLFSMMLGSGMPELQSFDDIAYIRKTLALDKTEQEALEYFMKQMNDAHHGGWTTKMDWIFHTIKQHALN
Chain of PI3Kα (P27986 whole entry partner, species assumed): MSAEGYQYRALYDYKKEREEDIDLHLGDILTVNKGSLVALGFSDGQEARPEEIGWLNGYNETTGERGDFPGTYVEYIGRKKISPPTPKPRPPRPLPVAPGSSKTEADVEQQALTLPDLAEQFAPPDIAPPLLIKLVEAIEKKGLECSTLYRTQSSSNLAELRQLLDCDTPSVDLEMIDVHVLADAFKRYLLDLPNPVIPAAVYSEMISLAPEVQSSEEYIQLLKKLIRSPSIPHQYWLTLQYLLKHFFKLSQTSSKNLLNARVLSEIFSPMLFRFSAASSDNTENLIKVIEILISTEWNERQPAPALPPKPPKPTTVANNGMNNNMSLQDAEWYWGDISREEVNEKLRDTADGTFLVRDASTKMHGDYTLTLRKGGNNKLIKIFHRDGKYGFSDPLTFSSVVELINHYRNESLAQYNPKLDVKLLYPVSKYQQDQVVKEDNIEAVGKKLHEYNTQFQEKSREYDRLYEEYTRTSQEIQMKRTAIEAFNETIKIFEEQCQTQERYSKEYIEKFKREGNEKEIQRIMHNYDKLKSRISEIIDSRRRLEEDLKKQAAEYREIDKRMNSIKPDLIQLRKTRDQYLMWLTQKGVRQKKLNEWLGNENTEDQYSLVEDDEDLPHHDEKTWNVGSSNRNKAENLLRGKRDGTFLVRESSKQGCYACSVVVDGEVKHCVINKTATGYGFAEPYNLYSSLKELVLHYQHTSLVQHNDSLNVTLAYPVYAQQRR
In short: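 PI3Kα (50 nM solution) was reacted with 30 μM ATP and 45 μM PIP2 solutions, each in HEPES pH 7.4 with MgCl2 and DTT, for 2 h at room temperature. Remaining ATP was measured by Kinase-Glo Plus luminescence, and inhibition was derived from ATP consumed. IC50 was taken from curve fitting of the serial dilutions.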

[2] = tested on: S6 (serine 235 and 236) phosphorylation in AN3CA tumor; experiment: S6 phosphorylation inhibition assay in xenograft; type: in vivo, female nude mouse; conditions: Mus musculus, AN3-CA, oral, 6 hr after dosing
Protocol: as §1, §2

[3] = tested on: human endometrial cancer cell strain AN3CA tumor; experiment: Anti-tumor effect assay using mouse subcutaneous transplantation model; type: in vivo, female nude mouse; conditions: AN3-CA, oral, tumor weight vs negative control, read-out: Anti-tumor effect (tumor growth inhibition rate); for inhibition in vivo at 20 mg/kg/day: consecutive days
Protocol: A tumor section was prepared from a human endometrial cancer cell strain AN3CA tumor mass formed in a female nude mouse as a subcutaneously transplanted tumor and then a xenograft model was prepared by transplanting the tumor section into female nude mouse. Tumor-bearing mice having an estimated tumor volume (long diameter×short diameter×short diameter/2) of 80 to 200 mm^3 were divided, so that there should be no significant difference in the mean estimated tumor volume and body weight as compared with the negative control group to perform a test. The test compound was orally administered at a predetermined dose for 8 consecutive days. On the following day of the final administration day, tumor-bearing mice were anesthetized and exsanguinated to death and a tumor mass was isolated to measure tumor weight (the compounds of Examples 1, 3, 6, 8, 11, 12, and 14). Furthermore, as a similar test, the test compound was orally administered for 5 consecutive days, animals were sacrificed on the final administration day, and tumor weight was measured (the compounds of Examples 60, 63, 75, 77, 79, 89, 92, 107, 108, 109, 110, and 127).
In all the tests, anti-tumor effect was calculated by the following formula. {1−(tumor weight in compound treatment group/tumor weight in negative control group)}×100

[4] = 8 or 5 consecutive days depending on compound

Row | IC50 (PI3Kα) | Structure (SMILES) | inhibition at 10 mg/kg [1] | inhibition at 10 mg/kg [2] | inhibition in vivo at 5 mg/kg/day [3, 4] | inhibition in vivo at 10 mg/kg/day [3, 4] | inhibition in vivo at 20 mg/kg/day [3] | inhibition in vivo at 2.5 mg/kg/day ([3]; 2.5 mg/kg/day, 8 or 5 consecutive days depending on compound)
1 | 10 to 20 nM | CC(C)Cn1c(N2CCN(S(C)(=O)=O)[C@@H](C)C2)nc2c(N3CCOCC3)nc(-c3cnc(N)nc3)nc21 [Example 53, 5-{9-Isobutyl-8-[(3S)-3-methyl-4-(methylsulfonyl)piperazin-1-yl]-6-morpholin-4-yl-9H-purin-2-yl}pyrimidin-2-amine] | 30 to 60% | – | 45% | 68% | – | –
2 | 10 to 20 nM | CC(=O)N1CCN(c2nc3c(N4CCOCC4)nc(-c4cnc(N)nc4)nc3n2CC(C)C)C[C@H]1C [Example 99, 5-{8-[(3R)-4-Acetyl-3-methylpiperazin-1-yl]-9-isobutyl-6-morpholin-4-yl-9H-purin-2-yl}pyrimidin-2-amine] | 30 to 60% | – | – | – | – | –
3 | < 10 nM | CC(C)Cn1c(N2CCN(C=O)CC2)nc2c(N3CCOC[C@@H]3C)nc(-c3cnc(N)nc3)nc21 [Example 132, 4-{2-(2-Aminopyrimidin-5-yl)-9-isobutyl-6-[(3S)-3-methylmorpholin-4-yl]-9H-purin-8-yl}piperazine-1-carboaldehyde] | > 60% | > 90% | – | – | – | –
4 | 10 to 20 nM | CC(=O)N1CCN(c2nc3c(N4CCOCC4)nc(-c4cnc(N)nc4)nc3n2CC(C)C)CC1 [Example 2, 5-[8-(4-Acetylpiperazin-1-yl)-9-isobutyl-6-morpholin-4-yl-9H-purin-2-yl]pyrimidin-2-amine] | – | – | 44% | 70% | – | –
5 | < 10 nM | CC(C)Cn1c(N2CCN(C(=O)CN(C)C)CC2)nc2c(N3CCOCC3)nc(-c3cnc(N)nc3)nc21 [Example 55, 5-(8-{4-[(Dimethylamino)acetyl]piperazin-1-yl}-9-isobutyl-6-morpholin-4-yl-9H-purin-2-yl)pyrimidin-2-amine] | – | – | – | 32% | 59% | –
6 | 10 to 20 nM | CC(C)Cn1c(N2CCN(S(C)(=O)=O)[C@H](C)C2)nc2c(N3CCOCC3)nc(-c3cnc(N)nc3)nc21 [Example 54, 5-{9-Isobutyl-8-[(3R)-3-methyl-4-(methylsulfonyl)piperazin-1-yl]-6-morpholin-4-yl-9H-purin-2-yl}pyrimidin-2-amine] | 30 to 60% | – | – | 74% | 82% | –
7 | 10 to 20 nM | CNc1ncc(-c2nc(N3CCOCC3)c3nc(N4CCN(S(C)(=O)=O)CC4)n(CC(F)(F)F)c3n2)cn1 [Example 11, N-Methyl-5-{8-[4-(methylsulfonyl)piperazin-1-yl]-6-morpholin-4-yl-9-(2,2,2-trifluoroethyl)-9H-purin-2-yl}pyrimidin-2-amine] | – | – | 85% | – | – | 68%
8 | 10 to 20 nM | CC(C)Cn1c(N2CCN(S(C)(=O)=O)CC2)nc2c(N3CCOCC3)nc(-c3cnc(N)nc3)nc21 [Example 1, 5-{9-Isobutyl-8-[4-(methylsulfonyl)piperazin-1-yl]-6-morpholin-4-yl-9H-purin-2-yl}pyrimidin-2-amine] | – | – | 79% | 92% | – | –

Continued, compound first:

Row | Structure (SMILES) | IC50 (PI3Kα) | inhibition at 10 mg/kg [1] | inhibition at 10 mg/kg [2] | inhibition in vivo at 5 mg/kg/day [3, 4] | inhibition in vivo at 10 mg/kg/day [3, 4] | inhibition in vivo at 20 mg/kg/day [3] | inhibition in vivo at 2.5 mg/kg/day ([3]; 2.5 mg/kg/day, 8 or 5 consecutive days depending on compound)
9 | CC(=O)N1CCN(c2nc3c(N4CCOC[C@@H]4C)nc(-c4cnc(N)nc4C)nc3n2CC2CC2)CC1 [Example 128, 5-{8-(4-acetylpiperazin-1-yl)-9-(cyclopropylmethyl)-6-[(3S)-3-methylmorpholin-4-yl]-9H-purin-2-yl}-4-methylpyrimidin-2-amine] | 10 to 20 nM | 30 to 60% | – | – | – | – | –
10 | CC(C)Cn1c(N2CCN(C(=O)[C@H](C)O)CC2)nc2c(N3CCOC[C@@H]3C)nc(-c3cnc(N)nc3)nc21 [Example 131, (2S)-1-(4-{2-(2-Aminopyrimidin-5-yl)-9-isobutyl-6-[(3S)-3-methylmorpholin-4-yl]-9H-purin-8-yl}piperazin-1-yl)-1-oxopropan-2-ol] | 10 to 20 nM | > 60% | > 90% | – | – | – | –
11 | CC(=O)N1CCN(c2nc3c(N4CCOCC4)nc(-c4cnc(N)nc4)nc3n2CC2CC2)C[C@H]1C [Example 97, 5-{8-[(3R)-4-Acetyl-3-methylpiperazin-1-yl]-9-(cyclopropylmethyl)-6-morpholin-4-yl-9H-purin-2-yl}pyrimidin-2-amine] | 10 to 20 nM | 30 to 60% | 70 to 90% | – | – | – | –
12 | CC(=O)N1CCN(c2nc3c(N4CCOC[C@@H]4C)nc(-c4cnc(N)nc4)nc3n2CC(C)C)CC1 [Example 129, 5-{8-(4-Acetylpiperazin-1-yl)-9-isobutyl-6-[(3S)-3-methylmorpholin-4-yl]-9H-purin-2-yl}pyrimidin-2-amine] | 10 to 20 nM | – | 70 to 90% | – | – | – | –
13 | CCC(=O)N1CCN(c2nc3c(N4CCOCC4)nc(-c4cnc(N)nc4)nc3n2CC(F)(F)F)CC1 [Example 117, 5-[6-Morpholin-4-yl-8-(4-propionylpiperazin-1-yl)-9-(2,2,2-trifluoroethyl)-9H-purin-2-yl]pyrimidin-2-amine] | < 10 nM | 30 to 60% | 70 to 90% | – | – | – | –
14 | C[C@@H]1CN(c2nc3c(N4CCOCC4)nc(-c4cnc(N)nc4)nc3n2CC(F)(F)F)C[C@H](C)N1 [Example 14, 5-[8-(cis-3,5-Dimethylpiperazin-1-yl)-6-morpholin-4-yl-9-(2,2,2-trifluoroethyl)-9H-purin-2-yl]pyrimidin-2-amine] | < 10 nM | – | – | 64% | 82% | – | –
15 | CNc1ncc(-c2nc(N3CCOCC3)c3nc(N4CCN(CC(=O)N(C)C)[C@H](C)C4)n(CC(F)(F)F)c3n2)cn1 [Example 87, N,N-Dimethyl-2-[(2R)-2-methyl-4-{2-[2-(methylamino)pyrimidin-5-yl]-6-morpholin-4-yl-9-(2,2,2-trifluoroethyl)-9H-purin-8-yl}piperazin-1-yl]acetamide] | < 10 nM | > 60% | – | – | – | – | –
16 | C[C@@H](O)CC(=O)N1CCN(c2nc3c(N4CCOCC4)nc(-c4cnc(N)nc4)nc3n2CC(F)(F)F)CC1 [Example 70, (2R)-4-{4-[2-(2-Aminopyrimidin-5-yl)-6-morpholin-4-yl-9-(2,2,2-trifluoroethyl)-9H-purin-8-yl]piperazin-1-yl}-4-oxobutan-2-ol] | 10 to 20 nM | > 60% | > 90% | – | – | – | –
17 | Cc1nc(N)ncc1-c1nc(N2CCOCC2)c2nc(N3CCN(S(C)(=O)=O)CC3)n(CC3CC3)c2n1 [Example 6, 5-{9-(Cyclopropylmethyl)-8-[4-(methylsulfonyl)piperazin-1-yl]-6-morpholin-4-yl-9H-purin-2-yl}-4-methylpyrimidin-2-amine] | < 10 nM | > 60% | – | 66% | 69% | – | –
18 | CC(=O)N1CCN(c2nc3c(N4CCOCC4)nc(-c4cnc(N)nc4)nc3n2CC2CC2)CC1 [Example 10, 5-[8-(4-Acetylpiperazin-1-yl)-9-(cyclopropylmethyl)-6-morpholin-4-yl-9H-purin-2-yl]pyrimidin-2-amine] | < 10 nM | – | – | – | 39% | 73% | –
19 | C[C@H]1COCCN1c1nc(-c2cnc(N)nc2)nc2c1nc(N1CCN(S(C)(=O)=O)CC1)n2CC(F)(F)F [Example 127, 5-{6-[(3S)-3-Methylmorpholin-4-yl]-8-[4-(methylsulfonyl)piperazin-1-yl]-9-(2,2,2-trifluoroethyl)-9H-purin-2-yl}pyrimidin-2-amine] | < 10 nM | – | – | 69% | 79% | – | –
